In ChEMBL document CHEMBL1149474, “Synthesis and receptor binding properties of chimeric peptides containing a mu-opioid receptor ligand and nociceptin/orphanin FQ receptor ligand Ac-RYYRIK-amide” (Bioorg Med Chem Lett, 2006) one finds IC50 data, which are given here for seven compounds.

Experiment [1] addresses Nociceptin receptor (Homo sapiens, UniProt P41146). The experiment is described as follows: Displacement of [3H]NOC from human ORL1 receptor expressed in HEK293 cells. Type of experiment: cell-based.
Experiment [2] has as its target Mu-type opioid receptor (Rattus norvegicus, UniProt P33535). Put plainly: Displacement of [3H]DAMGO from mu opioid receptor in rat brain homogenate. The format is tissue-based. A general note: Loss of bound radioactivity is the signal in a displacement assay; it reports binding, not function.

pIC50: −log10 of the molar value. Non-standard residues stand in square brackets, D forms with d. Residues, ends and D or L forms follow the SMILES beside them. βAla = NCCC(=O)O A value given as a limit tells only on which side of the number the result lay.

Mu-type opioid receptor, sequence (P33535 whole entry): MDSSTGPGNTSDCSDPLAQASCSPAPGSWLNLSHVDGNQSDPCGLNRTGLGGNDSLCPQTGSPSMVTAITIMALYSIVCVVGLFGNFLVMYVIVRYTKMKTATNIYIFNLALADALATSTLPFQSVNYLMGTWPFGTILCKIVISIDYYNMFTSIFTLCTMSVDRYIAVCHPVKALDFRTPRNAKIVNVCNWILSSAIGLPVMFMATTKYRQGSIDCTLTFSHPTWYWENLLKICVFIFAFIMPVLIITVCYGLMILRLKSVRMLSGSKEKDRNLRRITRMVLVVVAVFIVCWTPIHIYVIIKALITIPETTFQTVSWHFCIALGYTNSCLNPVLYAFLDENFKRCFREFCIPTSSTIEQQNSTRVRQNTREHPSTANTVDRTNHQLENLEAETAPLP
Nociceptin receptor, sequence (P41146 whole entry): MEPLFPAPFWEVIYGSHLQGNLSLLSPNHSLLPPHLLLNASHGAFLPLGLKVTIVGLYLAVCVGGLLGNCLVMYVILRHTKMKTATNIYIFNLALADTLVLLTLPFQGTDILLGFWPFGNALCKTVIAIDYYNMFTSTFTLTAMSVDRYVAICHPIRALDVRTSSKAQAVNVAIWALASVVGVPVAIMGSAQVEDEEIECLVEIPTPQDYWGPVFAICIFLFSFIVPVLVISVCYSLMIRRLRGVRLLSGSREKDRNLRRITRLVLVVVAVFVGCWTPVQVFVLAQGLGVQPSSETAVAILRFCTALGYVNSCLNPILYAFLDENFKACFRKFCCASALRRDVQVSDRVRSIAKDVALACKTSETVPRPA

In general, pIC50 refers to the negative decadic logarithm of the IC50, by convention in mol/L. A high value points to a low IC50. As for `CC[C@H](C)[C@H](NC(=O)[C@H](CCCN=C(N)N)NC(=O)[C@H](Cc1ccc(O)cc1)NC(=O)[C@H](Cc1ccc(O)cc1)NC(=O)[C@H](CCCN=C(N)N)NC(C)=O)C(=O)N[C@@H](CCCCN)C(=O)N[C@@H](CCCCNC(=O)CCNC(=O)[C@H](Cc1ccccc1)NC(=O)[C@@H](CCCN=C(N)N)NC(=O)[C@@H](N)Cc1ccc(O)cc1)C(N)=O`, the negative logarithm of the IC50 (pIC50) in experiment [1] was 9.10; in experiment [2], 8.56.
Take `N=C(N)NCCC[C@@H](NC(=O)[C@@H](N)Cc1ccc(O)cc1)C(=O)N[C@@H](Cc1ccccc1)C(=O)NCCC(N)=O` (H-Y[dR]F[βAla]-NH2): the negative-log IC50 (pIC50) in experiment [1] was < 5.00; in experiment [2], 8.93.
In the same order, the values of `C[C@@H](NC(=O)[C@@H](N)Cc1ccc(O)cc1)C(=O)N[C@@H](Cc1ccccc1)C(=O)NCC(=O)N[C@@H](Cc1ccc(O)cc1)C(=O)N1CCC[C@H]1C(=O)N[C@@H](CO)C(N)=O` [DERMORPHIN] are < 5.00 and 9.27.
For the compound `CC[C@H](C)[C@H](NC(=O)[C@H](CCCN=C(N)N)NC(=O)[C@H](Cc1ccc(O)cc1)NC(=O)[C@H](Cc1ccc(O)cc1)NC(=O)[C@H](CCCN=C(N)N)NC(C)=O)C(=O)N[C@@H](CCCCN)C(=O)NCC(=O)NCC(=O)NCC(=O)N[C@@H](CCCCNC(=O)CNC(=O)CNC(=O)[C@H](CO)NC(=O)[C@@H]1CCCN1C(=O)[C@H](Cc1ccc(O)cc1)NC(=O)CNC(=O)[C@H](Cc1ccccc1)NC(=O)[C@@H](C)NC(=O)[C@@H](N)Cc1ccc(O)cc1)C(N)=O`, the pIC50 is 10.33 in experiment [1] and 11.63 in experiment [2].
Turning to `CC[C@H](C)[C@H](NC(=O)[C@H](CCCN=C(N)N)NC(=O)[C@H](Cc1ccc(O)cc1)NC(=O)[C@H](Cc1ccc(O)cc1)NC(=O)[C@H](CCCN=C(N)N)NC(C)=O)C(=O)N[C@@H](CCCCN)C(N)=O`, in experiment [2], the pIC50 was < 5.00.
In experiment [1], `CC[C@H](C)[C@H](NC(=O)[C@H](CCCN=C(N)N)NC(=O)[C@H](Cc1ccc(O)cc1)NC(=O)[C@H](Cc1ccc(O)cc1)NC(=O)[C@H](CCCN=C(N)N)NC(C)=O)C(=O)N[C@@H](CCCCN)C(=O)N[C@@H](CCCCNC(=O)[C@H](CO)NC(=O)[C@@H]1CCCN1C(=O)[C@H](Cc1ccc(O)cc1)NC(=O)CNC(=O)[C@H](Cc1ccccc1)NC(=O)[C@@H](C)NC(=O)[C@@H](N)Cc1ccc(O)cc1)C(N)=O` had a pIC50 of 7.94.
Regarding `CC[C@H](C)[C@H](NC(=O)[C@H](CCCN=C(N)N)NC(=O)[C@H](Cc1ccc(O)cc1)NC(=O)[C@H](Cc1ccc(O)cc1)NC(=O)[C@H](CCCN=C(N)N)NC(C)=O)C(=O)N[C@@H](CCCCN)C(=O)NCC(=O)NCC(=O)NCC(=O)N[C@@H](CCCCNC(=O)CNC(=O)CNC(=O)CNC(=O)CNC(=O)CNC(=O)CCNC(=O)[C@H](Cc1ccccc1)NC(=O)[C@@H](CCCN=C(N)N)NC(=O)[C@@H](N)Cc1ccc(O)cc1)C(N)=O`, the pIC50 in experiment [1] is 10.10; in experiment [2] it was 10.32.
